These results are taken from patent US20260008818A1, “CYCLIC PEPTIDE OR SALT THEREOF, AND USES THEREOF” (FUJIFILM Corporation, priority 2023, published 2026).

Bridge positions count the residues as written; N and C are the ends. Ends that are not written are not given here. COCH2 = acetyl group that carries the bridge

The test has as its system Recombinant Human FGFR1 alpha (IIIc) Fc Chimera Protein. As to the kind of experiment: Binding affinity of enzymatically synthesized cyclic peptide to FGFR by ELISA. The conditions noted are these: luminescence signal at reaction concentration 10 nmol/L, SEQ ID NO: 39 standardized to 1, enzyme synthesis product. An outline of the steps: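 Plate-immobilized FGFR1α(IIIc)-Fc (5 ng/well) incubated with Myc-tagged cyclic peptide 3 h at room temperature; bound peptide detected with anti-Myc antibody (2 h) and chemiluminescence. Signal is FGFR minus no-FGFR wells, normalized to SEQ ID NO: 39 at 10 nmol/L and graded A–D.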
On the technique in general: An ELISA detects its analyte on a solid surface through an enzyme-linked reagent.
Turning to “156 (HCSYERLRFHGHEAPFRVK(COCH2)V; thioether 2-19 (inferred)) [compound 156]”, the “Evaluation result of binding affinity to FGFR” value (“Evaluation result” below) is “A (0.7 or more)”. The result for “347 (PCVQQISPHPWGAPFWVVTSK(COCH2)F; thioether 2-21) [compound 347]” reads “B (0.5 or more and less than 0.7)”.

With “239 (HK(COCH2)TWERLIFLGHIAPFLVCR; thioether 2-19 (inferred)) [compound 239]”, the “Evaluation result” value was “B (0.5 or more and less than 0.7)”. With “273 (QCYVQLYVWGHPAPFYWDK(COCH2)N; thioether 2-19 (inferred)) [compound 273]” the entry was “C (0.1 or more and less than 0.5)”; with “168 (HCSYERLQFYGHEAPFRVK(COCH2)V; thioether 2-19 (inferred)) [compound 168]”, “A (0.7 or more)”; with “351 (WCWQAPFNIVVNRKVSVLIVK(COCH2)G; thioether 2-21) [compound 351]”, “C (0.1 or more and less than 0.5)”.

Regarding “299 (HCSYEMLQFHGHEAPFRVK(COCH2)V; thioether 2-19 (inferred)) [compound 299]”, the “Evaluation result” value is “C (0.1 or more and less than 0.5)”. In the case of “203 (HCSYERLQFHGHEAPFRIK(COCH2)V; thioether 2-19 via Ac; not fully specified) [compound 203]”, the “Evaluation result” value is reported as “A (0.7 or more)”.

Take “328 (HCSYERLIFHGHIAPFWVK(COCH2)V; thioether 2-19 (inferred)) [compound 328]”: the “Evaluation result” value is given as “A (0.7 or more)”.

With “223 (HCSYERLQFHGHEAPFRVK(COCH2)H; thioether 2-19 (inferred)) [compound 223]”, the “Evaluation result” value was “A (0.7 or more)”. The result for “359 (WCPWGDIHVVPFHK(COCH2)V; thioether 2-14) [compound 359]” reads “C (0.1 or more and less than 0.5)”; that for “110 (HCSYERLQFHGFEAPFRVK(COCH2)V; thioether 2-19 (inferred)) [compound 110]”, “B (0.5 or more and less than 0.7)”; that for “53 (SCWYQPEWLGHHLPYLVK(COCH2)W; thioether 2-18 (inferred)) [compound 53]”, “C (0.1 or more and less than 0.5)”.

As to “82 (HCGYERLQFHGHEAPFRVKV; not fully specified; Description of Artificial Sequence: Cyclic peptide) [compound 82]”, the “Evaluation result” value is recorded as “A (0.7 or more)”. On to “163 (HCSYERLQFGGHEAPFRVK(COCH2)V; thioether 2-19 (inferred)) [compound 163]”, for which the “Evaluation result” value was “C (0.1 or more and less than 0.5)”. With “221 (HCSYERLQFHGHEAPFRVK(COCH2)E; thioether 2-19 (inferred)) [compound 221]” the entry was “A (0.7 or more)”; with “367 (WCRTWLWFEIPFWYQK(COCH2)E; thioether 2-16) [compound 367]”, “C (0.1 or more and less than 0.5)”; with “118 (HCSYERLQFHGHEAHFRVK(COCH2)V; thioether 2-19 (inferred)) [compound 118]”, “C (0.1 or more and less than 0.5)”. Turning to “78 (TCSYERLQFHGHEAPFRVKV; not fully specified; Description of Artificial Sequence: Cyclic peptide) [compound 78]”, the “Evaluation result” value is on record as “A (0.7 or more)”. As for “360 (DCWGWHREFVPFIK(COCH2)I; thioether 2-14) [compound 360]”, the “Evaluation result” value was “B (0.5 or more and less than 0.7)”.

On to “120 (HCSYGRLQFHGHEAPFRVK(COCH2)V; thioether 2-19 (inferred)) [compound 120]”, for which the “Evaluation result” value is “B (0.5 or more and less than 0.7)”.

As to “215 (HCSYERLQFHGHEAPFRVK(COCH2)W; thioether 2-19 via Ac; not fully specified) [compound 215]”, the “Evaluation result” value is “B (0.5 or more and less than 0.7)”.

Take “137 (HCSYEILQFHGHEAPFRVK(COCH2)V; thioether 2-19 (inferred)) [compound 137]”: the “Evaluation result” value is given as “A (0.7 or more)”.

With “204 (HCSYERLQFHGHEAPFRFK(COCH2)V; thioether 2-19 via Ac; not fully specified) [compound 204]”, the “Evaluation result” value is “C (0.1 or more and less than 0.5)”. As to “197 (HCSYERLQFHGHEAPFNVK(COCH2)V; thioether 2-19 via Ac) [compound 197]”, the “Evaluation result” value is on record as “A (0.7 or more)”. The result for “141 (HCSYEHLQFHGHEAPFRVK(COCH2)V; thioether 2-19 (inferred)) [compound 141]” reads “C (0.1 or more and less than 0.5)”; that for “266 (PCSWVQLQYQGFTAPFLVK(COCH2)Y; thioether 2-19 (inferred)) [compound 266]”, “C (0.1 or more and less than 0.5)”. Take “278 (SCIVPLYIYGWRAPYWLK(COCH2)V; thioether 2-18 (inferred)) [compound 278]”: the “Evaluation result” value was “C (0.1 or more and less than 0.5)”.

For the substance “202 (HCSYERLQFHGHEAPFRLK(COCH2)V; thioether 2-19 via Ac; not fully specified) [compound 202]”, the “Evaluation result” value was “C (0.1 or more and less than 0.5)”.

Take “277 (QCYVQLYVWGHPAPFYWDK(COCH2)I; thioether 2-19 (inferred)) [compound 277]”: the “Evaluation result” value is “C (0.1 or more and less than 0.5)”. The result for “249 (RCWKVLKVLGHRAPFLIAK(COCH2)Y; thioether 2-19 (inferred)) [compound 249]” reads “C (0.1 or more and less than 0.5)”; that for “85 (HCIYERLQFHGHEAPFRVKV; not fully specified; Description of Artificial Sequence: Cyclic peptide) [compound 85]”, “A (0.7 or more)”. The result for “169 (HCSYERLQFWGHEAPFRVK(COCH2)V; thioether 2-19 (inferred)) [compound 169]” reads “A (0.7 or more)”; that for “362 (WCHYAPFWVLNEGQLK(COCH2)V; thioether 2-16) [compound 362]”, “C (0.1 or more and less than 0.5)”; that for “208 (HCSYERLQFHGHEAPFRTK(COCH2)V; thioether 2-19 via Ac; not fully specified) [compound 208]”, “C (0.1 or more and less than 0.5)”. The result for “39 (HCSYERLQFHGHEAPFRVKV; also: cyclic peptide, ring not given here) [compound 39]” reads “A (0.7 or more)”. With “140 (HCSYETLQFHGHEAPFRVK(COCH2)V; thioether 2-19 (inferred)) [compound 140]”, the “Evaluation result” value was “C (0.1 or more and less than 0.5)”. The result for “73 (YCSYERLQFHGHEAPFRVK(COCH2)V; thioether 2-19 (inferred)) [compound 73]” reads “A (0.7 or more)”. The result for “290 (HCSYERLQFHGHKAPFRVK(COCH2)V; thioether 2-19 (inferred)) [compound 290]” reads “B (0.5 or more and less than 0.7)”; that for “83 (HCPYERLQFHGHEAPFRVKV; not fully specified; Description of Artificial Sequence: Cyclic peptide) [compound 83]”, “A (0.7 or more)”. For “114 (HCSYERLQFHGHEVPFRVK(COCH2)V; thioether 2-19 (inferred)) [compound 114]”, the “Evaluation result” value is “C (0.1 or more and less than 0.5)”. With “259 (GCRPVVTHHPWAPFWVVTK(COCH2)E; thioether 2-19 (inferred)) [compound 259]” the entry was “B (0.5 or more and less than 0.7)”; with “142 (HCSYERFQFHGHEAPFRVK(COCH2)V; thioether 2-19 (inferred)) [compound 142]”, “C (0.1 or more and less than 0.5)”; with “241 (HK(COCH2)TWERLIFLGHIAPFWVCV; thioether 2-19 (inferred)) [compound 241]”, “B (0.5 or more and less than 0.7)”. Turning to “311 (RCTWERLIFLGHIAPFWVK(COCH2)R; thioether 2-19 (inferred)) [compound 311]”, the “Evaluation result” value is “C (0.1 or more and less than 0.5)”. The result for “89 (HCWYERLQFHGHEAPFRVKV; not fully specified; Description of Artificial Sequence: Cyclic peptide) [compound 89]” reads “A (0.7 or more)”; that for “46 (ACWVQYLWHGHAAPFLIK(COCH2)S; thioether 2-18 (inferred)) [compound 46]”, “C (0.1 or more and less than 0.5)”. The result for “107 (HCSYERLQFHNHEAPFRVK(COCH2)V; thioether 2-19 (inferred)) [compound 107]” reads “C (0.1 or more and less than 0.5)”; that for “130 (HCSYSRLQFHGHEAPFRVK(COCH2)V; thioether 2-19 (inferred)) [compound 130]”, “B (0.5 or more and less than 0.7)”; that for “248 (QCWKRVRVYGFFAPFVHK(COCH2)I; thioether 2-18 (inferred)) [compound 248]”, “B (0.5 or more and less than 0.7)”. With “166 (HCSYERLQFVGHEAPFRVK(COCH2)V; thioether 2-19 (inferred)) [compound 166]” the entry was “A (0.7 or more)”.
